From patent publication US9844533B2, “Antioxidant-containing food composition for use in inhibiting histamine pathways in companion animals” (Hill's Pet Nutrition, Inc., priority 2008, dated 2017)

Key:
Type in all cases: cell-based
[1] = tested on: GAB2 (GRB2-associated-binding protein 2); test: Gene expression in four cat cell lines treated with or without lipoic acid (paired t test, GeneGo enrichment); conditions: Table 4; four cat cell lines with vs without lipoic acid; p<0.05
Method: (§1) The gene expression data from four cat cell lines treated with lipoic acid was analyzed.

[2] = tested on: RELA (Transcription factor p65); test: Gene expression in four cat cell lines treated with or without lipoic acid; conditions: Table 5; four cat cell lines with vs without lipoic acid; p<0.05
Method: as §1

[3] = tested on: PLA2G2F (Group IIFA2 secretory phospholipase precursor); test: as above; conditions: Table 5; four cat cell lines with vs without lipoic acid; p<0.05
Method: as §1

[4] = tested on: PRKAR1A (cAMP-dependent protein kinase type I-alpha regulatory subunit); test: as above; conditions: Table 5; four cat cell lines with vs without lipoic acid; p<0.05
Method: as §1

[5] = tested on: ADCY7 (Adenylate cyclase type 7); test: as above; conditions: Table 5; four cat cell lines with vs without lipoic acid; p<0.05
Method: as §1

[6] = tested on: TNF (Tumor necrosis factor precursor); test: as above; conditions: Table 5; four cat cell lines with vs without lipoic acid; p<0.05
Method: as §1

[7] = tested on: MAPK1 (Mitogen-activated protein kinase 1); test: as above; conditions: four cat cell lines with vs without lipoic acid, p<0.05
Method: as §1

[8] = tested on: ADCY2 (Adenylate cyclase type 2); test: as above; conditions: Table 5; four cat cell lines with vs without lipoic acid; p<0.05
Method: as §1

[9] = tested on: REL (C-Rel proto-oncogene protein); test: as above; conditions: Table 5; four cat cell lines with vs without lipoic acid; p<0.05
Method: as §1

[10] = tested on: PNPLA8 (Calcium-independent phospholipase A2-gamma); test: as above; conditions: Table 5; four cat cell lines with vs without lipoic acid; p<0.05
Method: as §1

[11] = tested on: MAP2K1 (Dual specificity mitogen-activated protein kinase 1); test: as above; conditions: Table 4; four cat cell lines with vs without lipoic acid; p<0.05
Method: as §1

[12] = tested on: NOS3 (Nitric oxide synthase, endothelial); test: as above; conditions: Table 5; four cat cell lines with vs without lipoic acid; p<0.05
Method: as §1

[13] = tested on: VCAM1 (Vascular cell adhesion protein 1 precursor); test: as above; conditions: Table 5; four cat cell lines with vs without lipoic acid; p<0.05
Method: as §1

[14] = tested on: LTC4S (Leukotriene C4 synthase); test: as above; conditions: Table 4; four cat cell lines with vs without lipoic acid; p<0.05
Method: as §1

[15] = tested on: histamine release and signaling pathways (gene networks); test: Gene network enrichment analysis of cat cell lines treated with lipoic acid; conditions: four cat cell lines treated with lipoic acid
Method: as §1

O=C(O)CCCCC1CCSS1 (stereo not drawn) [lipoic acid, alpha-lipoic acid]
Signal (GAB2 gene expression change) [1]: −0.8668 | Signal (RELA gene expression change) [2]: −0.429 | Signal (PLA2G2F gene expression change) [3]: 1.061 | Signal (PRKAR1A gene expression change) [4]: −0.184 | Signal (ADCY7 gene expression change) [5]: 0.3988 | Signal (TNF gene expression change) [6]: 0.1797 | Signal (MAPK1 gene expression change) ([7]; Table 4): −0.3117 | Signal (MAPK1 gene expression change) ([7]; Table 5): −0.3117 | Signal (ADCY2 gene expression change) [8]: 0.3925 | Signal (REL gene expression change) [9]: −0.4264 | Signal (PNPLA8 gene expression change) [10]: −0.2652 | Signal (MAP2K1 gene expression change) [11]: −0.1574 | Signal (NOS3 gene expression change) [12]: −0.5503 | Signal (VCAM1 gene expression change) [13]: −0.7819| | Signal (LTC4S gene expression change) [14]: −0.4586 | Regulation of key genes in histamine and IgE signaling networks [15]: down regulated
